Legend:
[1] = target: T1, WEE1 (Homo sapiens, UniProt P30291+Q96SW2); test: Western-blot assay of substrate protein degradation in hPBMCs, WEE1; assay type: cell-based; conditions: 24 hours of compound treatment, compounds tested at 50 nM and 500 nM (concentration of the table not stated)
T1 construct: endogenous in cells; host or cells: hPBMCs (Milecell Biotechnologies)

[2] = target: T2, IKZF1 (Homo sapiens, UniProt Q13422+Q96SW2); test: Western-blot assay of substrate protein degradation in hPBMCs, IKZF1; assay type: cell-based; conditions: 24 hours of compound treatment, compounds tested at 50 nM and 500 nM (concentration of the table not stated)
T2 construct: endogenous in cells; host or cells: hPBMCs (Milecell Biotechnologies)

[3] = target: T3, IKZF2 (Homo sapiens, UniProt Q96SW2+Q9UKS7); test: Western-blot assay of substrate protein degradation in hPBMCs, IKZF2; assay type: cell-based; conditions: 24 hours of compound treatment, compounds tested at 50 nM and 500 nM (concentration of the table not stated)
T3 construct: endogenous in cells; host or cells: hPBMCs (Milecell Biotechnologies)
T3 sequence (Q9UKS7 whole entry): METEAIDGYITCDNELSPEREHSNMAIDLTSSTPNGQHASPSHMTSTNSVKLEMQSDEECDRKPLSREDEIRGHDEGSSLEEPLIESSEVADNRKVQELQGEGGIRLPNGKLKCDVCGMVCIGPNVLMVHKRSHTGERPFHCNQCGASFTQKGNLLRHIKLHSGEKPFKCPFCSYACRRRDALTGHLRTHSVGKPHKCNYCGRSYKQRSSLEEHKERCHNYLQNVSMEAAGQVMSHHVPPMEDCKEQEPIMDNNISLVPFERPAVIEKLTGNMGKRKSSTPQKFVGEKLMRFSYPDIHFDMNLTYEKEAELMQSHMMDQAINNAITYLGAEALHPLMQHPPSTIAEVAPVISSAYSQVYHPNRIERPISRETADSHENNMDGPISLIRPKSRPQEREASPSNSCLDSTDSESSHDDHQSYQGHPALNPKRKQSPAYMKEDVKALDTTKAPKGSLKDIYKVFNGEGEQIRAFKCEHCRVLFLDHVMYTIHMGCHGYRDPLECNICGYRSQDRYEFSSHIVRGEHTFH
T3 sequence (Q96SW2 whole entry): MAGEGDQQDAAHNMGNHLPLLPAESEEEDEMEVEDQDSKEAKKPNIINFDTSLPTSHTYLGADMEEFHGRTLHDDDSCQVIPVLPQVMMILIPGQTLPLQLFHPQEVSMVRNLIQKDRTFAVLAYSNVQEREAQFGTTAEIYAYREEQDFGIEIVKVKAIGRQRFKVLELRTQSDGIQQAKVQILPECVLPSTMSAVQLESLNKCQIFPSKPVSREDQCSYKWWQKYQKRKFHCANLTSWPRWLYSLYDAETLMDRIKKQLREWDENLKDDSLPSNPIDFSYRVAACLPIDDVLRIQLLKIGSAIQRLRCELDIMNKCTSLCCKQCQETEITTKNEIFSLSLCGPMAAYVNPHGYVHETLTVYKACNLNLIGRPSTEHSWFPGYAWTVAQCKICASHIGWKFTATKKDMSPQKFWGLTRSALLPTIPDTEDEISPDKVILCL
T3 sequence (Q16531 whole entry partner): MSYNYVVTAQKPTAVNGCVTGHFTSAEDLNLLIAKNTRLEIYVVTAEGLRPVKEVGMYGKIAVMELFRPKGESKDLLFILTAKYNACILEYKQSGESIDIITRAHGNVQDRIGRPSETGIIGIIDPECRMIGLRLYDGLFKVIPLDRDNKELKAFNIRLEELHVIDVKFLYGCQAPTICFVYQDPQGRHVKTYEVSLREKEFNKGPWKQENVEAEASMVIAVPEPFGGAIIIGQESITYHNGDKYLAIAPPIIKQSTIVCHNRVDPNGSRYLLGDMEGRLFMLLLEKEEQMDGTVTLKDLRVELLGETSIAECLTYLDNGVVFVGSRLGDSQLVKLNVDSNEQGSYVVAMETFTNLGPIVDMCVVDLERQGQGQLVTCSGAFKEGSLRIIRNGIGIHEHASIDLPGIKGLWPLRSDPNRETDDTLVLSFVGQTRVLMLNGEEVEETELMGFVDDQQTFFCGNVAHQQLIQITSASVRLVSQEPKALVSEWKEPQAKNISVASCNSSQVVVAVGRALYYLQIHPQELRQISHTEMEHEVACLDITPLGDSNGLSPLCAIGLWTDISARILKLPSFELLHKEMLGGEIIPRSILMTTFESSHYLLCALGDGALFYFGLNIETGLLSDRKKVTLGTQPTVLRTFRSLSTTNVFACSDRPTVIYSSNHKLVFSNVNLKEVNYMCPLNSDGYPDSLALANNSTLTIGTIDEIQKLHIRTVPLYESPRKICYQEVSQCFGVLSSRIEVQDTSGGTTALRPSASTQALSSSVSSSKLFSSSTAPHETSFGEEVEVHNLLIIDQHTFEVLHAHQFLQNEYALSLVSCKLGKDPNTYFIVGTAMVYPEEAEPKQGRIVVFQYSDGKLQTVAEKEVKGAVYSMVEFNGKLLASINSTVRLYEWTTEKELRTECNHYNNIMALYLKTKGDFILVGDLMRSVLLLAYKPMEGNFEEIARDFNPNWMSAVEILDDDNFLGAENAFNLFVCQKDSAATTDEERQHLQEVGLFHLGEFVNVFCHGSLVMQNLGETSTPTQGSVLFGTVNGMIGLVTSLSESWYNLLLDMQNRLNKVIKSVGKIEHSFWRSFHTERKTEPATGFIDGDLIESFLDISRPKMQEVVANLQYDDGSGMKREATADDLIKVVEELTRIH

[4] = target: T4, IKZF3 (Homo sapiens, UniProt Q96SW2+Q9UKT9); test: Western-blot assay of substrate protein degradation in hPBMCs, IKZF3; assay type: cell-based; conditions: 24 hours of compound treatment, compounds tested at 50 nM and 500 nM (concentration of the table not stated)
T4 construct: endogenous in cells; host or cells: hPBMCs (Milecell Biotechnologies)
T4 sequence (Q9UKT9 whole entry): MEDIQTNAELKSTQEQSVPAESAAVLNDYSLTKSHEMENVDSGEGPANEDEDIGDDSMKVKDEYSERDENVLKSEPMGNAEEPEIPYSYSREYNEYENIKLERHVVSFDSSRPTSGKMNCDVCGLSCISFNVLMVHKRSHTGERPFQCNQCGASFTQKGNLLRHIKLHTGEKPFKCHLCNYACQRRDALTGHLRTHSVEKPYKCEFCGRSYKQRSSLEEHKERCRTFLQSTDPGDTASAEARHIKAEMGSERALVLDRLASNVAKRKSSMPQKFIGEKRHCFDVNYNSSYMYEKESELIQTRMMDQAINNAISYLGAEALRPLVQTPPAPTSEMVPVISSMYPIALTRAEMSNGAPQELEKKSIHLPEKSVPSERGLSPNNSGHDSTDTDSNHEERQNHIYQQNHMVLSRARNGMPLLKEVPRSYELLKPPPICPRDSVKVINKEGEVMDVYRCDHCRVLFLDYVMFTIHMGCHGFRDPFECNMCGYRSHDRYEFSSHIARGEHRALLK
T4 sequence (Q96SW2 whole entry): as the sequence (Q96SW2 whole entry) above
T4 sequence (Q16531 whole entry partner): as the sequence (Q16531 whole entry partner) above

[5] = target: T5, CK1α (Homo sapiens, UniProt P48729+Q96SW2); test: Western-blot assay of substrate protein degradation in hPBMCs, CK1α; assay type: cell-based; conditions: 24 hours of compound treatment, compounds tested at 50 nM and 500 nM (concentration of the table not stated)
T5 construct: endogenous in cells; host or cells: hPBMCs (Milecell Biotechnologies)
T5 sequence (P48729 whole entry): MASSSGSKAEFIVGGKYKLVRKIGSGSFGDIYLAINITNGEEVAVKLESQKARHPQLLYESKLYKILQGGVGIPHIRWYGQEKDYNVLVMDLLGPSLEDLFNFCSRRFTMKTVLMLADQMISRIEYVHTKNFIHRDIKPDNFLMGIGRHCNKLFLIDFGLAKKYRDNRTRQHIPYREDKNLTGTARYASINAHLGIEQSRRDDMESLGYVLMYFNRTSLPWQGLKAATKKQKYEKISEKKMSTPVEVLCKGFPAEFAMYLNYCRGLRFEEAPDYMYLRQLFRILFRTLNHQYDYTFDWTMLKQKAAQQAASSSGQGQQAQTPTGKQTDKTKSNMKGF
T5 sequence (Q96SW2 whole entry): as the sequence (Q96SW2 whole entry) above
T5 sequence (Q16531 whole entry partner): as the sequence (Q16531 whole entry partner) above

[6] = target: T6, GSPT1 (Homo sapiens, UniProt P15170+Q96SW2); test: Western-blot assay of substrate protein degradation in hPBMCs, GSPT1; assay type: cell-based; conditions: 24 hours of compound treatment, compounds tested at 50 nM and 500 nM (concentration of the table not stated)
T6 construct: endogenous in cells; host or cells: hPBMCs (Milecell Biotechnologies)
T6 sequence (P15170 whole entry): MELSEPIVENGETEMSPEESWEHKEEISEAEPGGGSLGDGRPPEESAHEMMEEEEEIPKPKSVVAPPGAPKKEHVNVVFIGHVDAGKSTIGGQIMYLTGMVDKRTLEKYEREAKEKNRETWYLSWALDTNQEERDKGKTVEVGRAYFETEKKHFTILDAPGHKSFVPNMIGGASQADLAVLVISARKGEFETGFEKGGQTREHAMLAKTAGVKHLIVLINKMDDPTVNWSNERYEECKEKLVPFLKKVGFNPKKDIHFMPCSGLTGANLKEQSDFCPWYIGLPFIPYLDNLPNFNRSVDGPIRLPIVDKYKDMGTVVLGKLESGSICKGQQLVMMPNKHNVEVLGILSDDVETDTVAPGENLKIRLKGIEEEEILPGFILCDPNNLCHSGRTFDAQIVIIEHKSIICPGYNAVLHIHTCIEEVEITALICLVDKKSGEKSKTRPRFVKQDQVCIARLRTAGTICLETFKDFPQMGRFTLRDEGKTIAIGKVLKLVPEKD
T6 sequence (Q96SW2 whole entry): as the sequence (Q96SW2 whole entry) above
T6 sequence (Q16531 whole entry partner): as the sequence (Q16531 whole entry partner) above

[7] = target: T7, human Cereblon WT GST-tagged protein (Homo sapiens, UniProt Q96SW2); test: CRBN-binding affinity by HTRF (CEREBLON BINDING kit); conditions: HTRF inhibitory activity, CEREBLON BINDING kit; read-out: HTRF IC50
T7 construct: purchased CISBIO 64BDCRBNPEH
T7 sequence (Q96SW2 whole entry): as the sequence (Q96SW2 whole entry) above

[8] = tested on: MM.1R; test: Tumor cell proliferation inhibition (CellTiter-Meiluncell Luminescent Cell Viability Assay), MM.1R; conditions: Homo sapiens, 96 h, read-out: inhibitory activity (IC50, nM) against tumor cells proliferation, MM.1R
[9] = tested on: Jurkat; test: Tumor cell proliferation inhibition (CellTiter-Meiluncell Luminescent Cell Viability Assay), Jurkat; conditions: Homo sapiens, 96 h, read-out: inhibitory activity (IC50, nM) against tumor cells proliferation, Jurkat
[10] = tested on: Human acute T lymphocytic leukemia cells (Molt-4); test: Tumor cell proliferation inhibition (CellTiter-Meiluncell Luminescent Cell Viability Assay), Molt-4; conditions: MOLT-4, 96 h, read-out: inhibitory activity (IC50, nM) against tumor cells proliferation, Molt 4
[11] = tested on: CCRF-CEM; test: Tumor cell proliferation inhibition (CellTiter-Meiluncell Luminescent Cell Viability Assay), CCRF-CEM; conditions: Homo sapiens, 96 h, read-out: inhibitory activity (IC50, nM) against tumor cells proliferation, CCRF-CEM
[12] = tested on: CAL-62; test: Tumor cell proliferation inhibition (CellTiter-Meiluncell Luminescent Cell Viability Assay), CAL-62; conditions: Homo sapiens, CAL-62, 96 h, read-out: inhibitory activity (IC50, nM) against tumor cells proliferation, CAL-62
Experimental: The tumor cells used herein were cultured in a cell culture medium listed in table 2 at 37°C in an incubator with 5% CO2. Prior to experimentation, all cell lines used were correctly identified by STR profiling, and tested negative for mycoplasma contamination using a mycoplasma detection kit through routine screenings.
On the following day, the test compounds of the present disclosure were subjected to serial dilution. […] Subsequently, 0.5 µL of the test compound dilution was transferred into the 96-well plate containing the cells, with each well containing 100 µL of cell culture medium. […] Into the 96-well plate, the diluted test compounds and corresponding detection reagents were added, resulting in final test compound concentrations of 500 nM and 10 nM, respectively. The experimental procedure is described below using the diluted 2 µM test compound as an example.
After the cells were treated with the compounds of the present disclosure for a specified period (the treatment durations were shown in Table 3), the cell viability assay reagent was added to the culture medium according to the kit's instructions to determine cell viability. […] All controls were treated using the same procedure as the compounds of the present disclosure. The growth inhibition curves for the compounds of the present disclosure were plotted using Prism GraphPad software, and the IC50 values were calculated therefrom.

[13] = tested on: NCI-H1975; test: Tumor cell proliferation inhibition (CellTiter-Meiluncell Luminescent Cell Viability Assay), NCI-H1975; conditions: Homo sapiens, NCI-H1975, 96 h, read-out: inhibitory activity (IC50, nM) against tumor cells proliferation, H1975
[14] = tested on: Human breast cancer cells (MDA-MB-231); test: Tumor cell proliferation inhibition (CellTiter-Meiluncell Luminescent Cell Viability Assay), MDA-MB-231; conditions: MDA-MB-231, 96 h, read-out: inhibitory activity (IC50, nM) against tumor cells proliferation, MDA-MB-231

T1 sequence (P30291 whole entry): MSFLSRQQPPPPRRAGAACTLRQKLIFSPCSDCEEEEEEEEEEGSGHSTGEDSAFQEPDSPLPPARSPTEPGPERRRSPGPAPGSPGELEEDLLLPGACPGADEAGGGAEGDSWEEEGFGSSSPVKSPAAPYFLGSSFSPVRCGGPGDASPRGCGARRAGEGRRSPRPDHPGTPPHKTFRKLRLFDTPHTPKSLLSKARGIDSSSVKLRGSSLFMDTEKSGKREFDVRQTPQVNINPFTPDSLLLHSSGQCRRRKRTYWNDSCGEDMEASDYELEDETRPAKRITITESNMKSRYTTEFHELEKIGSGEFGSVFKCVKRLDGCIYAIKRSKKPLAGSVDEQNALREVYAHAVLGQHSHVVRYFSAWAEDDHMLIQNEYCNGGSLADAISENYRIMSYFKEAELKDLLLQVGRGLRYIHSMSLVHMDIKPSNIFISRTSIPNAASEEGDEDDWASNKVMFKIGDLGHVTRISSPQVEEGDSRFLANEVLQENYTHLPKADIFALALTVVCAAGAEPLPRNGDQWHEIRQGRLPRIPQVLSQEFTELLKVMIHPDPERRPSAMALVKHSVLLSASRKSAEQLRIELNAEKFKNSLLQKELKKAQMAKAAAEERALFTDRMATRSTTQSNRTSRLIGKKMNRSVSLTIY
T1 sequence (Q96SW2 whole entry): as the sequence (Q96SW2 whole entry) above
T1 sequence (Q16531 whole entry partner): as the sequence (Q16531 whole entry partner) above

Row | Structure (SMILES) | IC50 [7] | IC50 [8] | IC50 [9] | IC50 [10] | IC50 [11] | IC50 [12] | IC50 [13] | IC50 [14] | Weel substrate protein remaining % [1] | IKZF 1 substrate protein remaining % [2] | IKZF2 substrate protein remaining % [3] | IKZF3 substrate protein remaining % [4] | CK1a substrate protein remaining % [5] | GSPT1 substrate protein remaining % [6]
1 | COc1ccc(N2CCN(Cc3ccc4c(c3)CN(C3CCC(=O)NC3=O)C4=O)CC2)cc1 (centres unmarked) [GT-04447, 3-(5-((4-(4-methoxyphenyl)piperazin-1-yl)methyl)-1-oxoisoindolin-2-yl)piperidine-2,6-dione] | 1000 to 1500 nM | 100 to 500 nM | 100 to 500 nM | 100 to 500 nM | 100 to 500 nM | – | – | – | B (80%< substrate protein remaining %≤ 100%) | A (0% ≤ substrate protein remaining % ≤ 80%) | A (0% ≤ substrate protein remaining % ≤ 80%) | A (0% ≤ substrate protein remaining % ≤ 80%) | B (80%< substrate protein remaining %≤ 100%) | A (0% ≤ substrate protein remaining % ≤ 80%)
2 | O=C1CCC(N2Cc3c(ccc(CN4CCN(c5cccc(Cl)c5Cl)CC4)c3F)C2=O)C(=O)N1 (centres unmarked) [GT-04526, 3-(5-((4-(2,3-dichlorophenyl)piperazin-1-yl)methyl)-4-fluoro-1-oxoisoindolin-2-yl)piperidine-2,6-dione] | 500 to 1000 nM | 1 to 5 nM | – | 1 to 5 nM | – | 5 to 10 nM | 10 to 50 nM | 10 to 50 nM | A (0% ≤ substrate protein remaining % ≤ 80%) | A (0% ≤ substrate protein remaining % ≤ 80%) | A (0% ≤ substrate protein remaining % ≤ 80%) | A (0% ≤ substrate protein remaining % ≤ 80%) | A (0% ≤ substrate protein remaining % ≤ 80%) | A (0% ≤ substrate protein remaining % ≤ 80%)
3 | O=C1CCC(N2Cc3cc(CN4CCN(c5nccc(Cl)c5Cl)CC4)ccc3C2=O)C(=O)N1 (centres unmarked) [GT-04532, 3-(5-((4-(3,4-dichloropyridin-2-yl)piperazin-1-yl)methyl)-1-oxoisoindolin-2-yl)piperidine-2,6-dione] | 500 to 1000 nM | 10 to 50 nM | 10 to 50 nM | 10 to 50 nM | – | 10 to 50 nM | – | – | A (0% ≤ substrate protein remaining % ≤ 80%) | A (0% ≤ substrate protein remaining % ≤ 80%) | A (0% ≤ substrate protein remaining % ≤ 80%) | A (0% ≤ substrate protein remaining % ≤ 80%) | A (0% ≤ substrate protein remaining % ≤ 80%) | A (0% ≤ substrate protein remaining % ≤ 80%)
4 | O=C1CCC(N2Cc3cc(CN4CCN(c5cncc(Cl)c5Cl)CC4)ccc3C2=O)C(=O)N1 (centres unmarked) [GT-04538, 3-(5-((4-(4,5-dichloropyridin-3-yl)piperazin-1-yl)methyl)-1-oxoisoindolin-2-yl)piperidine-2,6-dione] | < 500 nM | 100 to 500 nM | 50 to 100 nM | 50 to 100 nM | – | 100 to 500 nM | – | – | A (0% ≤ substrate protein remaining % ≤ 80%) | A (0% ≤ substrate protein remaining % ≤ 80%) | A (0% ≤ substrate protein remaining % ≤ 80%) | A (0% ≤ substrate protein remaining % ≤ 80%) | A (0% ≤ substrate protein remaining % ≤ 80%) | A (0% ≤ substrate protein remaining % ≤ 80%)

Now from value to molecule, other results behind:

Row | IC50 [7] | IC50 [8] | IC50 [9] | IC50 [10] | IC50 [11] | IC50 [12] | IC50 [13] | IC50 [14] | Structure (SMILES) | Weel substrate protein remaining % [1] | IKZF 1 substrate protein remaining % [2] | IKZF2 substrate protein remaining % [3] | IKZF3 substrate protein remaining % [4] | CK1a substrate protein remaining % [5] | GSPT1 substrate protein remaining % [6]
5 | 1500 to 1900 nM | 50 to 100 nM | 10 to 50 nM | 10 to 50 nM | – | 100 to 500 nM | – | – | O=C1CCC(N2Cc3cc(CN4CCN(c5ccc(F)c(F)c5)CC4)ccc3C2=O)C(=O)N1 (centres unmarked) [GT-04529, 3-(5-((4-(3,4-difluorophenyl)piperazin-1-yl)methyl)-1-oxoisoindolin-2-yl)piperidine-2,6-dione] | A (0% ≤ substrate protein remaining % ≤ 80%) | A (0% ≤ substrate protein remaining % ≤ 80%) | A (0% ≤ substrate protein remaining % ≤ 80%) | A (0% ≤ substrate protein remaining % ≤ 80%) | A (0% ≤ substrate protein remaining % ≤ 80%) | A (0% ≤ substrate protein remaining % ≤ 80%)
6 | 500 to 1000 nM | 10 to 50 nM | 10 to 50 nM | 10 to 50 nM | – | 50 to 100 nM | – | – | O=C1CCC(N2Cc3cc(CN4CCN(c5cc(F)ccc5F)CC4)ccc3C2=O)C(=O)N1 (centres unmarked) [GT-04539, 3-(5-((4-(2,5-difluorophenyl)piperazin-1-yl)methyl)-1-oxoisoindolin-2-yl)piperidine-2,6-dione] | A (0% ≤ substrate protein remaining % ≤ 80%) | A (0% ≤ substrate protein remaining % ≤ 80%) | A (0% ≤ substrate protein remaining % ≤ 80%) | A (0% ≤ substrate protein remaining % ≤ 80%) | A (0% ≤ substrate protein remaining % ≤ 80%) | A (0% ≤ substrate protein remaining % ≤ 80%)
7 | 500 to 1000 nM | 100 to 500 nM | 50 to 100 nM | 50 to 100 nM | – | 100 to 500 nM | – | – | O=C1CCC(N2Cc3cc(CN4CCN(c5c(F)cccc5F)CC4)ccc3C2=O)C(=O)N1 (centres unmarked) [GT-04540, 3-(5-((4-(2,6-difluorophenyl)piperazin-1-yl)methyl)-1-oxoisoindolin-2-yl)piperidine-2,6-dione] | A (0% ≤ substrate protein remaining % ≤ 80%) | A (0% ≤ substrate protein remaining % ≤ 80%) | A (0% ≤ substrate protein remaining % ≤ 80%) | A (0% ≤ substrate protein remaining % ≤ 80%) | B (80%< substrate protein remaining %≤ 100%) | A (0% ≤ substrate protein remaining % ≤ 80%)
8 | 500 to 1000 nM | 100 to 500 nM | 50 to 100 nM | 100 to 500 nM | – | 10 to 50 nM | – | – | Cc1ccc(N2CCN(Cc3ccc4c(c3)CN(C3CCC(=O)NC3=O)C4=O)CC2)s1 (centres unmarked) [GT-04546, 3-(5-((4-(5-methylthiophen-2-yl)piperazin-1-yl)methyl)-1-oxoisoindolin-2-yl)piperidine-2,6-dione] | A (0% ≤ substrate protein remaining % ≤ 80%) | A (0% ≤ substrate protein remaining % ≤ 80%) | A (0% ≤ substrate protein remaining % ≤ 80%) | A (0% ≤ substrate protein remaining % ≤ 80%) | A (0% ≤ substrate protein remaining % ≤ 80%) | A (0% ≤ substrate protein remaining % ≤ 80%)
